Assay results: patent US7897627B2, “Heteroaryl derivatives as orexin receptor antagonists” (Hoffmann-La Roche Inc., priority 2007, dated 2011)

Biological target: T1, human orexin-2 (hOX2) receptor (Homo sapiens, UniProt O43614)
T1 construct: expressed in transfected cells
T1 sequence (O43614 1-444): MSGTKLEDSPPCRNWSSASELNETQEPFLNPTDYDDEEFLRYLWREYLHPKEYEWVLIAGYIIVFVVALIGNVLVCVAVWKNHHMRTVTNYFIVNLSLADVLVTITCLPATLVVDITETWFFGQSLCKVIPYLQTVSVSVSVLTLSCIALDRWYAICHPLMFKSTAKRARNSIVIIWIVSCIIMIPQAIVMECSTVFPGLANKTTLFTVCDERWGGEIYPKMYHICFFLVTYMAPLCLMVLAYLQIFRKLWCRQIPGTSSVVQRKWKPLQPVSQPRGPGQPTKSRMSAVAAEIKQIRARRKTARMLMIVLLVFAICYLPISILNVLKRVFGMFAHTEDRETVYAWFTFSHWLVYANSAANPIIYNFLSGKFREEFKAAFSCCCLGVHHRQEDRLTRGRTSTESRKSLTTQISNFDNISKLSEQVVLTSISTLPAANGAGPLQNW
Experiment: Intracellular Ca2+ mobilization assay (FLIPR), CHO(dHFr-) cells expressing hOX2, orexin-A as agonist
Type: cell-based
Settings: antagonist Kb=IC50/(1+[A]/EC50); orexin-A at EC80; CHO(dHFr-)-OX2R cells; antagonist applied 25 min before agonist
Description: Intracellular Ca^2+ Mobilization Assay
The Chinese Hamster Ovary (dHFr-) mutant cell line stably expressing human orexin-1 (hOX1) or human orexin-2 (hOX2) receptors were maintained in Dulbecco's Modified Eagle Medium (1×) with GlutaMax™1, 4500 mg/L D-Glucose and Sodium Pyruvate (Catalog No. 31966-021, Invitrogen, Carlsbad, Calif.), 5% dialyzed fetal calf serum (Catalog No. 26400-044), 100 μg/ml penicillin and 100 μg/ml streptomycin. The cells were seeded at 5×10^4 cells/well in the poly-D-lysine treated, 96-well, black/clear-bottomed plates (Catalog No. BD356640, BD Biosciences, Palo Alto, Calif.). 24 h later, the cells were loaded for 1 h at 37° C. with 4 μM Flou-4 acetoxymethyl ester (Catalog No. F-14202, Molecular Probes, Eugene, Oreg.) in FLIPR buffer (1×HBSS, 20 mM HEPES, 2.5 mM Probenecid). Hanks' Balanced Salt Solution (HBSS) (10×) (catalog No. 14065-049) and HEPES (1M) (catalog No. 15630-056) were purchased from Invitrogen, Carlsbad, Calif. Probenecid (250 mM) (catalog No. P8761) was from Sigma, Buchs, Switzerland. The cells were washed five times with FLIPR buffer to remove excess dye and intracellular calcium mobilization, [Ca^2−]i were measured using a Fluorometric Imaging Plate Reader (FLIPR-96, Molecular Devices, Menlo Park, Calif.) as described previously (Malherbe et al., Mol. Pharmacol., 64, 823-832, 2003). Orexin A (catalog No. 1455, Toris Cookson Ltd, Bristol, UK) was used as agonist. Orexin A ([…] stock solution in DMSO) was diluted in FLIPR buffer+0.1% BSA. The EC50 and EC80 values of orexin-A were measured daily from standard agonist concentration-response curves in CHO(dHFr-)-OX1R and -OX2R cell lines. All compounds were dissolved in 100% DMSO. Inhibition curves were determined by addition of 11 concentrations (0.0001-10 μM) of inhibitory compounds and using EC80 value of orexin-A as agonist (a concentration which gave 80% of max agonist response, determined daily). The antagonists were applied 25 min (incubation at 37° C.) before the application of the agonist. Responses were measured as peak increase in fluorescence minus basal, normalized to the maximal stimulatory effect induced by EC80 value of orexin-A or orexin-B. Inhibition curves were fitted according to the Hill equation: y=100/(1+(x/IC50)^nH), where nH=slope factor using Excel-fit 4 software (Microsoft).
Kb values were calculated according to the following equation Kb=IC50/(1+[A]/EC50) where A is the concentration of agonist added which is very close to agonist EC80 value, and IC50 and EC50 values were derived from the antagonist inhibition and orexin-A or B agonist curves, respectively.

Compound	Kb
COc1cccc(OC)c1C(=O)N1CCC(Nc2nc3ccc(Cl)cc3o2)C1 (centres unmarked) [Example 1, [3-(6-Chloro-benzooxazol-2-ylamino)-pyrrolidin-1-yl]-(2,6-dimethoxy-phenyl)-methanone]	0.0279 µM
COc1cccc(OC)c1C(=O)N1CC[C@@H](Nc2nc3ccc(Cl)cc3o2)C1 [Example 5, [(R)-3-(6-Chloro-benzooxazol-2-ylamino)-pyrrolidin-1-yl]-(2,6-dimethoxy-phenyl)-methanone]	0.0242 µM
COc1cccc(OC)c1C(=O)N1CCC(Nc2cnc3ccccc3n2)C1 (centres unmarked) [Example 6, (2,6-Dimethoxy-phenyl)-[3-(quinoxalin-2-ylamino)-pyrrolidin-1-yl]-methanone]	0.0104 µM
COc1cccc(OC)c1C(=O)N1CCC(Nc2nc3ccc(Cl)cc3s2)C1 (centres unmarked) [Example 7, [3-(6-Chloro-benzothiazol-2-ylamino)-pyrrolidin-1-yl]-(2,6-dimethoxy-phenyl)-methanone]	0.0228 µM
COc1cccc(OC)c1C(=O)N1CC[C@@H](Nc2cnc3ccccc3n2)C1 [Example 24, (2,6-Dimethoxy-phenyl)-[(R)-3-(quinoxalin-2-ylamino)-pyrrolidin-1-yl]-methanone]	0.0415 µM
COc1cccc(OC)c1C(=O)N1CC[C@@H](Nc2nc3ccc(Cl)cc3s2)C1 [Example 25, [(R)-3-(6-Chloro-benzothiazol-2-ylamino)-pyrrolidin-1-yl]-(2,6-dimethoxy-phenyl)-methanone]	0.0163 µM
O=C(c1ccccc1-n1cccc1)N1CC[C@@H](Nc2nc3ccc(Cl)cc3o2)C1 [Example 28, [(R)-3-(6-Chloro-benzooxazol-2-ylamino)-pyrrolidin-1-yl]-(2-pyrrol-1-yl-phenyl)-methanone]	0.0096 µM
O=C(c1c(Cl)cccc1Cl)N1CC[C@@H](Nc2nc3ccc(Cl)cc3o2)C1 [Example 33, [(R)-3-(6-Chloro-benzooxazol-2-ylamino)-pyrrolidin-1-yl]-(2,6-dichloro-phenyl)-methanone]	0.0354 µM
Cc1cccc(Cl)c1C(=O)N1CC[C@@H](Nc2nc3ccc(Cl)cc3o2)C1 [Example 35, [(R)-3-(6-Chloro-benzooxazol-2-ylamino)-pyrrolidin-1-yl]-(2-chloro-6-methyl-phenyl)-methanone]	0.045 µM
COc1cccc(OC)c1C(=O)N1CC[C@@H](Nc2cnc3cc(Cl)ccc3n2)C1 [Example 41, [(R)-3-(6-Chloro-quinoxalin-2-ylamino)-pyrrolidin-1-yl]-(2,6-dimethoxy-phenyl)-methanone]	0.0302 µM
COc1cccc(OC)c1C(=O)N1CC[C@@H](Nc2nc3c(Cl)cccc3s2)C1 [Example 43, [(R)-3-(4-Chloro-benzothiazol-2-ylamino)-pyrrolidin-1-yl]-(2,6-dimethoxy-phenyl)-methanone]	0.0015 µM
CCc1ccccc1C(=O)N1CC[C@@H](Nc2nc3ccc(Cl)cc3o2)C1 [Example 47, [(R)-3-(6-Chloro-benzooxazol-2-ylamino)-pyrrolidin-1-yl]-(2-ethyl-phenyl)-methanone]	0.0377 µM
CCOc1ccccc1C(=O)N1CC[C@@H](Nc2nc3ccc(Cl)cc3o2)C1 [Example 52, [(R)-3-(6-Chloro-benzooxazol-2-ylamino)-pyrrolidin-1-yl]-(2-ethoxy-phenyl)-methanone]	0.0249 µM
CSc1ccccc1C(=O)N1CC[C@@H](Nc2nc3ccc(Cl)cc3o2)C1 [Example 53, [(R)-3-(6-Chloro-benzooxazol-2-ylamino)-pyrrolidin-1-yl]-(2-methylsulfanyl-phenyl)-methanone]	0.0299 µM
O=C(c1ccccc1OC(F)F)N1CC[C@@H](Nc2nc3ccc(Cl)cc3o2)C1 [Example 56, [(R)-3-(6-Chloro-benzooxazol-2-ylamino)-pyrrolidin-1-yl]-(2-difluoromethoxy-phenyl)-methanone]	0.047 µM
O=C(c1ccccc1-c1ccco1)N1CC[C@@H](Nc2nc3ccc(Cl)cc3o2)C1 [Example 57, [(R)-3-(6-Chloro-benzooxazol-2-ylamino)-pyrrolidin-1-yl]-(2-furan-2-yl-phenyl)-methanone]	0.0025 µM
O=C(c1cnoc1-c1ccccc1)N1CC[C@@H](Nc2nc3ccc(Cl)cc3o2)C1 [Example 61, [(R)-3-(6-Chloro-benzooxazol-2-ylamino)-pyrrolidin-1-yl]-(5-phenyl-isoxazol-4-yl)-methanone]	0.0054 µM
O=C(c1ccccc1-c1ncn[nH]1)N1CC[C@@H](Nc2nc3ccc(Cl)cc3o2)C1 [Example 62, [(R)-3-(6-Chloro-benzooxazol-2-ylamino)-pyrrolidin-1-yl]-[2-(2H-[1,2,4]triazol-3-yl)-phenyl]-methanone]	0.014 µM
O=C(c1ccccc1C(F)(F)F)N1CC[C@@H](Nc2nc3ccc(Cl)cc3o2)C1 [Example 63, [(R)-3-(6-Chloro-benzooxazol-2-ylamino)-pyrrolidin-1-yl]-(2-trifluoromethyl-phenyl)-methanone]	0.0219 µM
O=C(c1ccccc1-c1cccnc1)N1CC[C@@H](Nc2nc3ccc(Cl)cc3o2)C1 [Example 65, [(R)-3-(6-Chloro-benzooxazol-2-ylamino)-pyrrolidin-1-yl]-(2-pyridin-3-yl-phenyl)-methanone]	0.0272 µM
Cc1onc(-c2ccccc2)c1C(=O)N1CC[C@@H](Nc2nc3ccc(Cl)cc3o2)C1 [Example 67, [(R)-3-(6-Chloro-benzooxazol-2-ylamino)-pyrrolidin-1-yl]-(5-methyl-3-phenyl-isoxazol-4-yl)-methanone]	0.0051 µM
Cc1ccc(C(F)(F)F)c(C(=O)N2CC[C@@H](Nc3nc4ccc(Cl)cc4o3)C2)c1 [Example 68, [(R)-3-(6-Chloro-benzooxazol-2-ylamino)-pyrrolidin-1-yl]-(5-methyl-2-trifluoromethyl-phenyl)-methanone]	0.0018 µM
Cc1noc(-c2ccccc2C(=O)N2CC[C@@H](Nc3nc4ccc(Cl)cc4o3)C2)n1 [Example 69, [(R)-3-(6-Chloro-benzooxazol-2-ylamino)-pyrrolidin-1-yl]-[2-(3-methyl-[1,2,4]oxadiazol-5-yl)-phenyl]-methanone]	0.0155 µM
O=C(c1ccccc1-c1cccs1)N1CC[C@@H](Nc2nc3ccc(Cl)cc3o2)C1 [Example 70, [(R)-3-(6-Chloro-benzooxazol-2-ylamino)-pyrrolidin-1-yl]-(2-thiophen-2-yl-phenyl)-methanone]	0.0024 µM
O=C(c1ccccc1OC(F)(F)F)N1CC[C@@H](Nc2nc3ccc(Cl)cc3o2)C1 [Example 71, [(R)-3-(6-Chloro-benzooxazol-2-ylamino)-pyrrolidin-1-yl]-(2-trifluoromethoxy-phenyl)-methanone]	0.0097 µM
O=C(c1c(F)cccc1C(F)(F)F)N1CC[C@@H](Nc2nc3ccc(Cl)cc3o2)C1 [Example 72, [(R)-3-(6-Chloro-benzooxazol-2-ylamino)-pyrrolidin-1-yl]-(2-fluoro-6-trifluoromethyl-phenyl)-methanone]	0.0298 µM
CCOc1cccc(OCC)c1C(=O)N1CC[C@@H](Nc2nc3ccc(Cl)cc3o2)C1 [Example 73, [(R)-3-(6-Chloro-benzooxazol-2-ylamino)-pyrrolidin-1-yl]-(2,6-diethoxy-phenyl)-methanone]	0.0012 µM
Cc1cccc(-c2ccccc2C(=O)N2CC[C@@H](Nc3nc4ccc(Cl)cc4o3)C2)c1 [Example 75, [(R)-3-(6-Chloro-benzooxazol-2-ylamino)-pyrrolidin-1-yl]-(3′-methyl-biphenyl-2-yl)-methanone]	0.0163 µM
Cc1nc(-c2ccccc2)c(C(=O)N2CC[C@@H](Nc3nc4ccc(Cl)cc4o3)C2)s1 [Example 78, [(R)-3-(6-Chloro-benzooxazol-2-ylamino)-pyrrolidin-1-yl]-(2-methyl-4-phenyl-thiazol-5-yl)-methanone]	0.0145 µM
